Measurements taken from patent US11812767B2, “Beverage having Reb D and Reb M” (SUNTORY HOLDINGS LIMITED, priority 2018, dated 2023).

Assays:
[1] = cited from earlier work
[2] = Degradation of Reb D and Reb M in phosphate buffer at 40° C. for 8 weeks, analysed by HPLC; format: physicochemical; conditions: for % Reb M degradation 2 weeks: 2 weeks at 40° C.; for % Reb M degradation 4 weeks: 4 weeks at 40° C.; for % Reb M degradation 6 weeks: 6 weeks at 40° C.; for % Reb M degradation 8 weeks: 8 weeks at 40° C.
Experimental: A study was carried out as follows, samples were prepared comprising 50 ppm, 150 ppm, 250 ppm and 400 ppm, of Reb D and samples with the following ratios of Reb D:Reb M 1:4, 1:1, 4:1 wherein the total concentration of the sample was 400 ppm. The samples were prepared in phosphate buffer and the pH was adjusted using phosphoric acid. Samples were prepared at the following pH; 2.0, 2.5, 3.0 and 3.5. These samples were incubated at 40° C. for 8 weeks. This incubation protocol should mimic the degradation at room temperature over 6 months. The amount of Reb D and Reb M in each sample at T=0 was calculated by HPLC this was then used to calculate the amount of remaining Reb M in each sample at each specified time point. Aliquots were taken at 2, 4, 6 and 8 weeks and analysed by HPLC to determine the degradation of Reb D and combinations of Reb D and Reb M over the 8 week study.

[3] = pH 2, Reb D 0.008 % w/w + Reb M 0.032 % w/w
[4] = pH 2, Reb D 0.02 % w/w + Reb M 0.02 % w/w
[5] = pH 2, Reb D 0.032 % w/w + Reb M 0.008 % w/w
[6] = pH 2.5, Reb D 0.008 % w/w + Reb M 0.032 % w/w
[7] = pH 2.5, Reb D 0.02 % w/w + Reb M 0.02 % w/w
[8] = pH 2.5, Reb D 0.032 % w/w + Reb M 0.008 % w/w
[9] = pH 3, Reb D 0.008 % w/w + Reb M 0.032 % w/w
[10] = pH 3, Reb D 0.02 % w/w + Reb M 0.02 % w/w
[11] = pH 3, Reb D 0.032 % w/w + Reb M 0.008 % w/w
[12] = pH 3.5, Reb D 0.008 % w/w + Reb M 0.032 % w/w
[13] = pH 3.5, Reb D 0.02 % w/w + Reb M 0.02 % w/w
[14] = pH 3.5, Reb D 0.032 % w/w + Reb M 0.008 % w/w

For C=C1C[C@@]23CC[C@H]4[C@@](C)(CCC[C@@]4(C)C(=O)O[C@@H]4O[C@H](CO)[C@@H](O)[C@H](O[C@@H]5O[C@H](CO)[C@@H](O)[C@H](O)[C@H]5O)[C@H]4O[C@@H]4O[C@H](CO)[C@@H](O)[C@H](O)[C@H]4O)[C@@H]2CC[C@]1(O[C@@H]1O[C@H](CO)[C@@H](O)[C@H](O[C@@H]2O[C@H](CO)[C@@H](O)[C@H](O)[C@H]2O)[C@H]1O[C@@H]1O[C@H](CO)[C@@H](O)[C@H](O)[C@H]1O)C3 [Reb M, rebaudioside M], the “Sweetness potency (relative to sucrose)” value [1] is listed as 200-250, the “% Reb M degradation 2 weeks” value [2, 3] is listed as 28% and the “% Reb M degradation 4 weeks” value [2, 3] is listed as 55%. The “% Reb M degradation 6 weeks” value [2, 3] was 71%, the “% Reb M degradation 8 weeks” value [2, 3] was 80% and the “% Reb M degradation 2 weeks” value [2, 4] was 25%. For the same compound, the “% Reb M degradation 4 weeks” value [2, 4] was 56%, the “% Reb M degradation 6 weeks” value [2, 4] was 69% and the “% Reb M degradation 8 weeks” value [2, 4] was 78%. The “% Reb M degradation 2 weeks” value [2, 5] was 35%, the “% Reb M degradation 4 weeks” value [2, 5] was 59% and the “% Reb M degradation 6 weeks” value [2, 5] was 72%. The “% Reb M degradation 8 weeks” value [2, 5] was 80%, the “% Reb M degradation 2 weeks” value [2, 6] was 3% and the “% Reb M degradation 4 weeks” value [2, 6] was 22%. The “% Reb M degradation 6 weeks” value [2, 6] was 31%, the “% Reb M degradation 8 weeks” value [2, 6] was 38% and the “% Reb M degradation 2 weeks” value [2, 7] was 6%. The “% Reb M degradation 4 weeks” value [2, 7] was 20%, the “% Reb M degradation 6 weeks” value [2, 7] was 29% and the “% Reb M degradation 8 weeks” value [2, 7] was 38%. For the same compound, the “% Reb M degradation 2 weeks” value [2, 8] was 4%, the “% Reb M degradation 4 weeks” value [2, 8] was 18% and the “% Reb M degradation 6 weeks” value [2, 8] was 28%. For the same compound, the “% Reb M degradation 8 weeks” value [2, 8] was 38%, the “% Reb M degradation 2 weeks” value [2, 9] was 0% and the “% Reb M degradation 4 weeks” value [2, 9] was 11%. The “% Reb M degradation 6 weeks” value [2, 9] was 15%, the “% Reb M degradation 8 weeks” value [2, 9] was 17% and the “% Reb M degradation 2 weeks” value [2, 10] was 0%. The “% Reb M degradation 4 weeks” value [2, 10] was 10%, the “% Reb M degradation 6 weeks” value [2, 10] was 14% and the “% Reb M degradation 8 weeks” value [2, 10] was 17%. For the same compound, the “% Reb M degradation 2 weeks” value [2, 11] was 0%, the “% Reb M degradation 4 weeks” value [2, 11] was 7% and the “% Reb M degradation 6 weeks” value [2, 11] was 12%. The “% Reb M degradation 8 weeks” value [2, 11] was 15%, the “% Reb M degradation 2 weeks” value [2, 12] was 0% and the “% Reb M degradation 4 weeks” value [2, 12] was 4%. For the same compound, the “% Reb M degradation 6 weeks” value [2, 12] was 4%, the “% Reb M degradation 8 weeks” value [2, 12] was 6% and the “% Reb M degradation 2 weeks” value [2, 13] was 0%. For the same compound, the “% Reb M degradation 4 weeks” value [2, 13] was 3%, the “% Reb M degradation 6 weeks” value [2, 13] was 4% and the “% Reb M degradation 8 weeks” value [2, 13] was 7%. The “% Reb M degradation 2 weeks” value [2, 14] was 0%, the “% Reb M degradation 4 weeks” value [2, 14] was 0% and the “% Reb M degradation 6 weeks” value [2, 14] was 2%. The “% Reb M degradation 8 weeks” value [2, 14] was 5%.

For C=C1C[C@@]23CC[C@H]4[C@@](C)(CCC[C@@]4(C)C(=O)O[C@@H]4O[C@H](CO)[C@@H](O)[C@H](O)[C@H]4O)[C@@H]2CC[C@]1(O[C@@H]1O[C@H](CO)[C@@H](O)[C@H](O[C@@H]2O[C@H](CO)[C@@H](O)[C@H](O)[C@H]2O)[C@H]1O[C@@H]1O[C@H](CO)[C@@H](O)[C@H](O)[C@H]1O)C3 [Rebaudioside A], the “Sweetness potency (relative to sucrose)” value [1] is listed as 200-300.

For C=C1C[C@@]23CC[C@H]4[C@@](C)(CCC[C@@]4(C)C(=O)O[C@@H]4O[C@H](CO)[C@@H](O)[C@H](O)[C@H]4O[C@@H]4O[C@H](CO)[C@@H](O)[C@H](O)[C@H]4O)[C@@H]2CC[C@]1(O[C@@H]1O[C@H](CO)[C@@H](O)[C@H](O)[C@H]1O[C@@H]1O[C@H](CO)[C@@H](O)[C@H](O)[C@H]1O)C3 [Rebaudioside E], the “Sweetness potency (relative to sucrose)” value [1] is listed as 174.

For C=C1C[C@@]23CC[C@H]4[C@@](C)(CCC[C@@]4(C)C(=O)O[C@@H]4O[C@H](CO)[C@@H](O)[C@H](O)[C@H]4O)[C@@H]2CC[C@]1(O[C@@H]1O[C@H](CO)[C@@H](O)[C@H](O)[C@H]1O)C3 [Rubusoside], the “Sweetness potency (relative to sucrose)” value [1] is listed as 114.

For C=C1C[C@@]23CC[C@H]4[C@@](C)(CCC[C@@]4(C)C(=O)O)[C@@H]2CC[C@]1(O[C@@H]1O[C@H](CO)[C@@H](O)[C@H](O)[C@H]1O[C@@H]1O[C@H](CO)[C@@H](O)[C@H](O)[C@H]1O)C3 [Steviolbioside], the “Sweetness potency (relative to sucrose)” value [1] is listed as 90.

For C=C1C[C@@]23CC[C@H]4[C@@](C)(CCC[C@@]4(C)C(=O)O[C@@H]4O[C@H](CO)[C@@H](O)[C@H](O)[C@H]4O)[C@@H]2CC[C@]1(O[C@@H]1O[C@H](CO)[C@@H](O)[C@H](O)[C@H]1O[C@@H]1O[C@H](CO)[C@@H](O)[C@H](O)[C@H]1O)C3 [Stevioside], the “Sweetness potency (relative to sucrose)” value [1] is given as 150-250.

In the case of Rebaudioside B, the “Sweetness potency (relative to sucrose)” value [1] is listed as 150.

In the case of Rebaudioside C, the “Sweetness potency (relative to sucrose)” value [1] is listed as 30.

For Rebaudioside F, the “Sweetness potency (relative to sucrose)” value [1] is listed as 200.
